# Results published in PMC10465125 (eLife, 2023).
# Entries after “also recorded” stand apart in the source; their conditions may differ.
# How the values were obtained:
# [1] = system: SARS-CoV-2 spike Vpps of different variants (alpha, beta, gamma, delta, omicron); format: cell-based
# SARS-CoV-2 omicron virus = test: microbe, parasite or virus in culture; format: cell-based
Molecule,"suppression of entry of Vpp of beta, delta and omicron variant [1]","suppression of infection by Vpp of wild type, alpha variant, gamma variant [1]","EC50 (SARS-CoV-2 omicron virus; Severe acute respiratory syndrome coronavirus 2, Vero C1008, read-out: EC50 against omicron variant virus production) [µg/mL]","block of alpha, beta, gamma, delta, and omicron variants Vpp infection as well as wild-type Vpps [1]",EC50 against omicron variant virus production (SARS-CoV-2 omicron virus) [µg/mL]
"O=C1O[C@H]2[C@@H]3OC(=O)c4cc(O)c(O)c(O)c4-c4c(O)c(O)c5oc(=O)c6c(c(O)c(O)c7oc(=O)c4c5c76)-c4c(cc(O)c(O)c4O)C(=O)OC[C@H]3OC(O)[C@@H]2OC(=O)c2cc(O)c(O)c(O)c2-c2c1cc(O)c(O)c2O (mixture of isomers) [Punicalagin, punicalagin]",less potency and not,significant suppression; also recorded: potent inhibitor,2.88,–,–
tannic acid [reference compound],–,significant suppression,–,could block,5.27
